Laboratory results as given in paper PMC8002823, “Synthesis and Structure–Activity Relationships of Aristoyagonine Derivatives as Brd4 Bromodomain Inhibitors with X-ray Co-Crystal Research” (Molecules, 2021).
Values joined by “and” are separate entries in the source; they are usually repeats but may differ in a detail not shown here. Identical values can stand only once.

How the values were obtained:
Brd4 bromodomain = biological target: T1, Brd4 bromodomain (Homo sapiens, UniProt O60885); assay: Alpha-screen enzyme assay (bromodomain binding to acetylated histone peptide); conditions: for IC50 / inhibitory activity against Brd4 bromodomain (in words): alpha-screen assay; for IC50: inhibition of bromodomain binding activity, calculated with Prism6;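 on all read-outs here: AlphaScreen proximity readout pairing streptavidin donor beads with anti-GST acceptor beads, with hits checked against bead interference using a TruHit control kit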
T1 construct: glutathione-S-transferase (GST) and His-tagged bromodomain; made in house
Description: Bromodomain was prepared as previously described. […] Streptavidin-coated donor beads and anti-GST alpha-screen acceptor beads were added under low-light condition. […] The alpha-screen results were confirmed by using alpha-screen TruHit kits (PerkinElmer, USA).

Ty82 cells = assay: Cell cytotoxic assay in Ty82 cells; type: cell-based; conditions: Homo sapiens; for CC50: Ty82 cell cytotoxic activity, 72 h; for IC50: TY82, cell cytotoxic activity (Table 4 head prints IC50)
Description: For the viability experiments, Ty82 cells were seeded in 96-well plates at 30% confluency and exposed to chemicals the next day. After 72 h, WST-1 reagent was added, and absorbance at 450 nm was measured by using a Spectramax spectrophotometer (Molecular Devices, San Jose, CA, USA) in accordance with the manufacturer’s instructions. The CC50 values were calculated by using GraphPad Prism version 5 for Windows. The curves were fitted using a nonlinear regression model with a log (inhibitor) versus response formula.

Row | IC50 (Brd4 bromodomain) | melting point | inhibitory activity against Brd4 bromodomain (in words) (Brd4 bromodomain) | increase in activity compared with 8ae (Brd4 bromodomain; Brd4 IC50 ratio) | Structure (SMILES) | CC50 (Ty82 cells) | IC50 (Ty82 cells)
1 | > 32 µM | 185 to 188 °C |  |  | CCN(CC)c1ccc2c3c1Oc1ccc(OCc4ccccc4)cc1C=C3N(C)C2=O [Compound 8cd, 9-(Benzyloxy)-5-(diethylamino)-1-methylbenzo[6,7]oxepino[4,3,2-cd]isoindol-2(1H)-one] | > 20 µM | 
2 | 7.29 µM | 199 to 201 °C |  |  | CCN(CC)c1ccc2c3c1Oc1cc4c(cc1C=C3N(C)C2=O)OCO4 [Compound 8ce, 5-(Diethylamino)-1-methyl-[1,3]dioxolo[4”,5”.4′,5′]benzo[1′,2′:6,7]oxepino[4,3,2-cd]isoindol-2(1H)-one] | 10 µM | 
3 | 0.68 µM | 188 to 190 °C |  |  | CCOc1ccc2c3c1Oc1ccc(OCc4ccccn4)cc1C=C3N(C)C2=O [Compound 8bn, 5-Ethoxy-1-methyl-9-(pyridine-2-ylmethoxy)benzo[6,7]oxepino[4,3,2-cd]isoindol-2(1H)-one] | 0.36 µM | 
4 |  | 198 to 200 °C |  |  | CCOc1ccc2c3c1Oc1ccc(OCc4ccccc4)cc1C=C3N(C)C2=O [Compound 8bo] |  | 
5 | 11.1 µM | 237 to 239 °C | modest inhibition |  | COc1ccc2c3c1Oc1cc4c(cc1C=C3N(C)C2=O)OCO4 [Compound 8bh, 5-Methoxy-1-methyl-[1,3]dioxolo[4”,5”.4′,5′]benzo[1′,2′:6,7]oxepino[4,3,2-cd]isoindol-2(1H)-one] | 2.16 µM | 
6 | 0.86 µM |  |  | four-fold increased activity | CCOc1c(OC)ccc2c1Oc1c(OC)ccc3c1C(=C2)N(C)C3=O [Compound 8ab, 7-Ethoxy-5,8-dimethoxy-1-methylbenzo[6,7]oxepino[4,3,2-cd]isoindol-2(1H)-one] |  | 
7 | 5.86 µM | 165 to 167 °C |  |  | CCN(CC)c1ccc2c3c1Oc1ccc(O)cc1CC3N(C)C2=O (centres unmarked) [Compound 8cc, 5-(Diethylamino)-9-hydroxy-1-methyl-11,11a-dihydrobenzo[6,7]oxepino[4,3,2-cd]isoindol-2(1H)-one] | 10 µM | 
8 | 0.91 µM | 169 to 171 °C |  |  | CCOc1ccc2c3c1Oc1ccc(OCCN(CC)CC)cc1C=C3N(C)C2=O [Compound 8bm, 9-(2-(Diethylamino)ethoxy)-5-ethoxy-1-methylbenzo[6,7]oxepino[4,3,2-cd]isoindol-2(1H)-one] | 0.66 µM | 
9 | > 9 µM | 230 to 232 °C |  |  | CCOc1ccc2c3c1Oc1ccc(C(F)(F)F)cc1C=C3N(C)C2=O [Compound 8bj, 5-Ethoxy-1-methyl-9-(trifluoromethyl)benzo[6,7]oxepino[4,3,2-cd]isoindol-2(1H)-one] | > 20 µM | 
10 | 9 µM | 203 to 205 °C |  |  | CCCc1ccc2c3c1Oc1ccc(OCc4ccccc4)cc1C=C3N(C)C2=O [Compound 8dd, 9-(Benzyloxy)-1-methyl-5-propylbenzo[6,7]oxepino[4,3,2-cd]isoindol-2(1H)-one] |  | 10 µM
11 | 0.41 µM | 177 to 179 °C |  |  | COc1ccc2c3c1Oc1ccc(O)cc1C=C3N(C)C2=O [Compound 8bd, 9-Hydroxy-5-methoxy-1-methylbenzo[6,7]oxepino[4,3,2-cd]isoindol-2(1H)-one] | 0.54 µM | 
12 | 2.69 µM | 257 to 259 °C |  |  | CCCc1ccc2c3c1Oc1cc4c(cc1C=C3N(C)C2=O)OCO4 [Compound 8de, 1-methyl-5-propyl-[1,3]dioxolo[4”,5”.4′,5′]benzo[1′,2′:6,7]oxepino[4,3,2-cd]isoindol-2(1H)-one] |  | 4.5 µM
13 | 5.33 µM | 189 to 191 °C | weak inhibitory effect |  | CCOc1ccc2c3c1Oc1c(ccc(OC)c1OCCc1ccc(OC)cc1)C=C3N(C)C2=O [Compound 8af, 5-Ethoxy-8-methoxy-7-(4-methoxyphenethoxy)-1-methylbenzo[6,7]oxepino[4,3,2-cd]isoindol-2(1H)-one] | > 4 µM | 
14 | > 32 µM |  | no inhibitory activity |  | COc1ccc2c3c1Oc1ccc(C(F)(F)F)cc1C=C3N(C)C2=O [Compound 8bb, 5-Methoxy-1-methyl-9-(trifluoromethyl)benzo[6,7]oxepino[4,3,2-cd]isoindol-2(1H)-one] | > 20 µM | 
15 | 0.84 µM | 208 to 210 °C |  |  | COc1cccc2c1Oc1c(OC)ccc3c1C(=C2)N(C)C3=O [Compound 8aa, 5,7-Dimethoxy-1-methylbenzo[6,7]oxepino[4,3,2-cd]isoindol-2(1H)-one] |  | 
16 | 1.12 µM |  |  |  | CCOc1ccc2c3c1Oc1ccc(O)cc1C=C3N(C)C2=O [Compound 8bl, 5-Ethoxy-9-hydroxy-1-methylbenzo[6,7]oxepino[4,3,2-cd]isoindol-2(1H)-one] | 0.31 µM | 
17 | 1.37 µM |  |  |  | CCCc1ccc2c3c1Oc1ccc(OCc4ccccn4)cc1C=C3N(C)C2=O [Compound 8dc, 1-Methyl-5-propyl-9-(pyridine-2-ylmethoxy)benzo[6,7]oxepino[4,3,2-cd]isoindol-2(1H)-one] |  | 1.77 µM
18 | > 32 µM | 227 to 229 °C |  |  | Cc1ccc2c3c1Oc1ccc(C(F)(F)F)cc1C=C3N(C)C2=O [Compound 8df, 1,5-Dimethyl-9-(trifluoromethyl)benzo[6,7]oxepino[4,3,2-cd]isoindol-2(1H)-one] |  | 
19 | 2.89 µM | 207 to 209 °C | modest inhibition |  | CCOc1ccc2c3c1Oc1cc4c(cc1C=C3N(C)C2=O)OCO4 [Compound 8bp, 5-Ethoxy-1-methyl-[1,3]dioxolo[4”,5”.4′,5′]benzo[1′,2′:6,7]oxepino[4,3,2-cd]isoindol-2(1H)-one] | 3.81 µM | 
20 | 0.91 µM | 176 to 178 °C |  |  | COc1ccc2c3c1Oc1ccc(OCc4ccccn4)cc1C=C3N(C)C2=O [Compound 8bf, 5-Methoxy-1-methyl-9-(pyridine-2-ylmethoxy)benzo[6,7]oxepino[4,3,2-cd]isoindol-2(1H)-one] | 0.23 µM | 
21 | 3.74 µM |  |  |  | COc1ccc(CCOc2c(OC)ccc3c2Oc2c(OC)ccc4c2C(=C3)N(C)C4=O)cc1 [Compound 8ac, 5,8-Dimethoxy-7-(4-methoxyphenethoxy)-1-methylbenzo[6,7]oxepino[4,3,2-cd]isoindol-2(1H)-one] | > 20 µM | 
22 | 0.86 µM | 174 to 176 °C |  |  | CCN(CC)CCOc1ccc2c(c1)C=C1c3c(ccc(OC)c3O2)C(=O)N1C [Compound 8be, 9-(2-(Diethylamino)ethoxy)-5-methoxy-1-methylbenzo[6,7]oxepino[4,3,2-cd]isoindol-2(1H)-one] | 0.56 µM | 
23 | > 32 µM | 187 to 189 °C | did not |  | COc1ccc2c3c1Oc1ccc(OCc4ccccc4)cc1C=C3N(C)C2=O [Compound 8bg, 9-Benzyloxy-5-methoxy-1-methylbenzo[6,7]oxepino[4,3,2-cd]isoindol-2(1H)-one] |  | 
24 | > 32 µM | 239 to 241 °C |  |  | CCCc1ccc2c3c1Oc1ccc(C(F)(F)F)cc1C=C3N(C)C2=O [Compound 8db, 1-Methyl-5-propyl-9-(trifluoromethyl)benzo[6,7]oxepino[4,3,2-cd]isoindol-2(1H)-one] |  | > 20 µM
25 | 7.08 µM and 7.07 µM | 189 to 191 °C |  |  | COc1ccc2c(c1OCCCOc1ccccc1)Oc1c(OC)ccc3c1C(=C2)N(C)C3=O [Compound 8ad, 5,8-Dimethoxy-1-methyl-7-(3-phenoxypropoxy)benzo[6,7]oxepino[4,3,2-cd]isoindol-2(1H)-one] | > 4 µM | 

Row | Structure (SMILES) | IC50 (Brd4 bromodomain) | melting point | inhibitory activity against Brd4 bromodomain (in words) (Brd4 bromodomain) | increase in activity compared with 8ae (Brd4 bromodomain; Brd4 IC50 ratio) | CC50 (Ty82 cells) | IC50 (Ty82 cells)
26 | CCCc1ccc2c3c1Oc1ccc(OCC(C)C)cc1C=C3N(C)C2=O [Compound 8da, 9-Isobutoxy-1-methyl-5-propylbenzo[6,7]oxepino[4,3,2-cd]isoindol-2(1H)-one] | 6.64 µM | 196 to 199 °C |  |  |  | 10 µM
27 | COc1ccc2c3c1Oc1ccc(OCC(C)C)cc1C=C3N(C)C2=O [Compound 8ba, 9-Isobutoxy-5-methoxy-1-methylbenzo[6,7]oxepino[4,3,2-cd]isoindol-2(1H)-one] | 16.7 µM |  |  |  |  | 
28 | CCOc1ccc2c3c1Oc1ccc(OCC(C)C)cc1C=C3N(C)C2=O [Compound 8bi, 9-Isobutoxy-5-ethoxy-1-methylbenzo[6,7]oxepino[4,3,2-cd]isoindol-2(1H)-one] | > 10 µM | 178 to 180 °C |  |  |  | 
29 | CCN(CC)c1ccc2c3c1Oc1ccc(O)cc1C=C3N(C)C2=O [Compound 8cb, 5-(Diethylamino)-9-hydroxy-1-methylbenzo[6,7]oxepino[4,3,2-cd]isoindol-2(1H)-one] | 4.89 µM | 181 to 183 °C | weaker inhibitory effects than 8bd and 8bl |  | 8 µM | 
30 | CCOc1ccc2c3c1Oc1c(ccc(OC)c1OC)C=C3N(C)C2=O [Compound 8ae, 5-Ethoxy-7,8-dimethoxy-1-methylbenzo[6,7]oxepino[4,3,2-cd]isoindol-2(1H)-one] | 4.16 µM | 219 to 220 °C | slightly increased the inhibitory activity compared with 8af |  |  | 
